Experimental data as given in ChEMBL document CHEMBL1201862, “PubChem BioAssay data set” (2004).
Each block holds one compound with its values, some of them ahead of it. The source made the active and inactive calls.

Legend:
[1] = biological target: T1, Sentrin-specific protease 6 (Homo sapiens, UniProt Q9GZR1); test: SAR Analysis of small molecule inhibitors of Sentrin-specific protease 6 (SENP6) using a Luminescent assay. [Related pubchem assays (depositor defined):AID2582, AID2599]; assay type: functional
T1 sequence (Q9GZR1 whole entry): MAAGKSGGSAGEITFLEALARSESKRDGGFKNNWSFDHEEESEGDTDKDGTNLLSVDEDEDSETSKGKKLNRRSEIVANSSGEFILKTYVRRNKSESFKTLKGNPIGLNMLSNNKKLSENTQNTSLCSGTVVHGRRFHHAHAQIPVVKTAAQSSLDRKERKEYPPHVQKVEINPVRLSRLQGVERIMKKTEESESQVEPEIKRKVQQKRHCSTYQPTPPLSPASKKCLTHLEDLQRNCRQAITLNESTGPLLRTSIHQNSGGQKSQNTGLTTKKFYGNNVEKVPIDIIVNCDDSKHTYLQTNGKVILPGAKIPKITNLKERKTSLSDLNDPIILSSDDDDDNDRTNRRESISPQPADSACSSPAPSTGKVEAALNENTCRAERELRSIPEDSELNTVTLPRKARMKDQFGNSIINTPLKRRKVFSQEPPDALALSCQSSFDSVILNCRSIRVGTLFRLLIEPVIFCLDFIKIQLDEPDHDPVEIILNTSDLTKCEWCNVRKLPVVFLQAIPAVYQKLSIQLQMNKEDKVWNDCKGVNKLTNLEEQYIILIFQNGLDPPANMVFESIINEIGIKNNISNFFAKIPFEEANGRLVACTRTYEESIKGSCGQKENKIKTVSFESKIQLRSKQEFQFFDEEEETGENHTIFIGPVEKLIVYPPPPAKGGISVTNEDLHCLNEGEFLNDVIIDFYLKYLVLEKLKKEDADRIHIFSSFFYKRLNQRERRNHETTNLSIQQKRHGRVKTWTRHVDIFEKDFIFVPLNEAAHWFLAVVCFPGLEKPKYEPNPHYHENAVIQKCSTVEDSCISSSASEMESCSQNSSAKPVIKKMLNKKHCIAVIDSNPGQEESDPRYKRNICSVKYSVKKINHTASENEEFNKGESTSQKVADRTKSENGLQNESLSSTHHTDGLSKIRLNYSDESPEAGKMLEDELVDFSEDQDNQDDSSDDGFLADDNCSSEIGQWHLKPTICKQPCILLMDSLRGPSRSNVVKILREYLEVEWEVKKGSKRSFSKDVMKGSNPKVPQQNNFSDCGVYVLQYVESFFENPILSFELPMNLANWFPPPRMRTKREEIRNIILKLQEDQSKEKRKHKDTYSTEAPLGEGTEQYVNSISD

[2] = biological target: T2, Sentrin-specific protease 7 (Homo sapiens, UniProt Q9BQF6); test: SENP7 protease inhibitors, SAR follow-up, biochemical, luminescence (AID 504497); assay type: functional
T2 sequence (Q9BQF6 whole entry): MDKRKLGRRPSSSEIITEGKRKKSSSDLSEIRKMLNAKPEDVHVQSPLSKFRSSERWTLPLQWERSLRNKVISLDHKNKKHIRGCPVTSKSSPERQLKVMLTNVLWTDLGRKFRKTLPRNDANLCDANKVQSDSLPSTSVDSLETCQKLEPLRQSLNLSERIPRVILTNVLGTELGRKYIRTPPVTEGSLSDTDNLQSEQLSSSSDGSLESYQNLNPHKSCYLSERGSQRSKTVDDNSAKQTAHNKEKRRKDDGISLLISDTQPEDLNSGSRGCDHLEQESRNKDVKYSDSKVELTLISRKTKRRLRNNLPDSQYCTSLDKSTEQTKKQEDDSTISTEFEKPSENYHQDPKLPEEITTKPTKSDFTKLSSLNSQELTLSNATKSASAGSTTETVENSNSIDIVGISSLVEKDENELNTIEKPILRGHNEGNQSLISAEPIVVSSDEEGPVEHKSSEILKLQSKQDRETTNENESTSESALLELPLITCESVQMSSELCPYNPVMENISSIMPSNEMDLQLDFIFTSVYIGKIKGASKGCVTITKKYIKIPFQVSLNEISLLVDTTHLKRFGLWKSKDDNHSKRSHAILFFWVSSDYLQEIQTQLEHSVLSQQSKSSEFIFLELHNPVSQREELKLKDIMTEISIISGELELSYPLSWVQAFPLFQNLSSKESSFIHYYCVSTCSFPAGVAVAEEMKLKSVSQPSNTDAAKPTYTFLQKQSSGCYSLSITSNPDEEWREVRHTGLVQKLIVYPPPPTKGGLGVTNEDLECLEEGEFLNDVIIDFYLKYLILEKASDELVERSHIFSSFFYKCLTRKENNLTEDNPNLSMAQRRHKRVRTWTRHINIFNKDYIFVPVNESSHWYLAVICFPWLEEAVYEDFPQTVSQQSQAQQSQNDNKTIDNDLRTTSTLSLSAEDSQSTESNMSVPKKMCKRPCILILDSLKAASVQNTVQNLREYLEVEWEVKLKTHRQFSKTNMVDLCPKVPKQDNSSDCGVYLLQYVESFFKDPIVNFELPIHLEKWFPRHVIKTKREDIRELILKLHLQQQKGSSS

Caspase-3 [3] = biological target: T3, Caspase-3 (Homo sapiens, UniProt P42574); test: SAR Analysis of small molecule inhibitors of Sentrin-specific proteases (SENPs) using a Caspase-3 Selectivity assay. [Related pubchem assays (depositor defined):AID2540, AID2599, AID434973, AID489001]; assay type: functional
T3 sequence (P42574 whole entry): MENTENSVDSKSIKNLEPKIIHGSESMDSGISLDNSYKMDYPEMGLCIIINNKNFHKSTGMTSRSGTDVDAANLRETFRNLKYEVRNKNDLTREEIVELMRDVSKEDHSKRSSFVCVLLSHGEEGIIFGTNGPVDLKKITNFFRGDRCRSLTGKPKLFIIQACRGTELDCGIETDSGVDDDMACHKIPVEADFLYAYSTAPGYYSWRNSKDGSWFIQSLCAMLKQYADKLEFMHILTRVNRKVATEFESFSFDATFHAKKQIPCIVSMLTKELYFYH

[4] = biological target: T4, Sentrin-specific protease 8 (Homo sapiens, UniProt Q96LD8); test: SENP8 protease inhibitors, SAR follow-up, biochemical, luminescence (AID 504501); assay type: functional
T4 sequence (Q96LD8 whole entry): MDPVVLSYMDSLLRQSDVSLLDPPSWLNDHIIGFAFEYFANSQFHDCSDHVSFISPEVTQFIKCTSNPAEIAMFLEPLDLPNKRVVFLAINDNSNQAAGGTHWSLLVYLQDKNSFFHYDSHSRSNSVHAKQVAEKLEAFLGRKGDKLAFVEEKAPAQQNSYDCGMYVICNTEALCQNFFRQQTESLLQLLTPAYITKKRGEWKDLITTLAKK

[5] = biological target: Dual specificity tyrosine-phosphorylation-regulated kinase 1B (Homo sapiens, UniProt Q9Y463); test: Navigating the Kinome. Panel member name: DYRK1B; assay type: functional
[6] = biological target: Tyrosine-protein kinase receptor TYRO3 (Homo sapiens, UniProt Q06418); assay type: functional;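 also: TYRO3 value obtained as one member of a kinome-wide profiling panel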
[7] = biological target: Cyclin-dependent kinase 8 (Homo sapiens, UniProt P49336); test: Navigating the Kinome. Panel member name: CDK8; assay type: functional
[8] = biological target: Dual specificity protein kinase CLK4 (Homo sapiens, UniProt Q9HAZ1); assay type: functional
Caspase-3 [9] = biological target: T3, Caspase-3; test: procaspase-3 activators, dose response, biochemical, absorbance (AID 489014)
[10] = biological target: T5, Endoribonuclease toxin MazF (Escherichia coli K-12, UniProt P0AE70); test: fluorescent RNA oligo signal without MazF, dose response, counter-screen for MazEF activator project, biochemical, fluorescence, single-stranded RNase substrate (AID 588502); assay type: functional
Protein Rev = Protein Rev (Human immunodeficiency virus type 1 group M subtype B (isolate HXB2)(HIV-1), UniProt P04618); test: inhibitors of Rev binding to RRE RNA, dose response, biochemical, fluorescence polarization, HIV-1 (AID 434976); design: species or system Human immunodeficiency virus 1
Caspase-7 = Caspase-7 (Homo sapiens, UniProt P55210); test: procaspase-7 activators, dose response, counter-screen for procaspase-3 activator project, biochemical, absorbance (AID 489013)
[11] = biological target: T5, Endoribonuclease toxin MazF; test: MazF toxin RNase activators, dose response, biochemical, fluorescence, single-stranded RNA substrate, uHTS hits (AID 588481); assay type: functional
[12] = biological target: Female germline-specific tumor suppressor gld-1 (Caenorhabditis elegans, UniProt Q17339); test: inhibitors of GLD-1 binding to TGE RNA, dose response, biochemical, fluorescence polarization, C. elegans (AID 2802);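 also: fluorescence polarization of labeled TGE RNA bound by purified gld-1 protein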
[13] = biological target: Cyclin-dependent kinase 19 (Homo sapiens, UniProt Q9BWU1); test: Navigating the Kinome. Panel member name: CDC2L6; assay type: functional
[14] = biological target: Vascular endothelial growth factor receptor 1 (Homo sapiens, UniProt P17948); assay type: functional;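 also: measured within a kinome-wide profiling panel, FLT1 as the panel member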
[15] = biological target: Protein disulfide-isomerase (Homo sapiens, UniProt P07237); test: PDI inhibitors, insulin aggregation turbidity, dose response, biochemical, absorbance, cherry-picked samples (AID 602350); assay type: functional
Sequence of Protein disulfide-isomerase (P07237 whole entry): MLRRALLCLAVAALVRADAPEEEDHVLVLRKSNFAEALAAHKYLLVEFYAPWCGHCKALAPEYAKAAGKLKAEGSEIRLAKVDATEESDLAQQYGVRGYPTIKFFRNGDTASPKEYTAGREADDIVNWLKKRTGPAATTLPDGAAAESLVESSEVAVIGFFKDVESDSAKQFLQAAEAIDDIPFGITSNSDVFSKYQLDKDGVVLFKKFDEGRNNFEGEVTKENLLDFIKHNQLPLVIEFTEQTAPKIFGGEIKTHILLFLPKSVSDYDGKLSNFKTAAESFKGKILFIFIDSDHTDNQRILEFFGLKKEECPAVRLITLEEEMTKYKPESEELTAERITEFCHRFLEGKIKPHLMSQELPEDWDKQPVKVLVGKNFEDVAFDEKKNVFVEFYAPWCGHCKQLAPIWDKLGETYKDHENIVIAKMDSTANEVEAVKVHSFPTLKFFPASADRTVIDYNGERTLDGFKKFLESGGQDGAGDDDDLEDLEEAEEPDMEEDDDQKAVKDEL

T5 sequence (P0AE70 whole entry): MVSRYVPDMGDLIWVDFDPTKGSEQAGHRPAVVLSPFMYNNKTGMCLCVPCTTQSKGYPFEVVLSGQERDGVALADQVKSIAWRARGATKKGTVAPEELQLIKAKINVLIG
Sequence of Caspase-7 (P55210 24-198 limits assumed): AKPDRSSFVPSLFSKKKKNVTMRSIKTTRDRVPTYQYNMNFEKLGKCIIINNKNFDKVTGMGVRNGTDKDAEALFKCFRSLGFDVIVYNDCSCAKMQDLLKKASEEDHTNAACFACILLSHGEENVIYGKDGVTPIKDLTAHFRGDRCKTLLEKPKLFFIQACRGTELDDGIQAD
Sequence of Caspase-7 (P55210 207-303 limits assumed): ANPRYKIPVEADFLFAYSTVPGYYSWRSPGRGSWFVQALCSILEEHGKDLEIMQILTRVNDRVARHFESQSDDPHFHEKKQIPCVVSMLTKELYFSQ
Sequence of Dual specificity protein kinase CLK4 (Q9HAZ1 whole entry): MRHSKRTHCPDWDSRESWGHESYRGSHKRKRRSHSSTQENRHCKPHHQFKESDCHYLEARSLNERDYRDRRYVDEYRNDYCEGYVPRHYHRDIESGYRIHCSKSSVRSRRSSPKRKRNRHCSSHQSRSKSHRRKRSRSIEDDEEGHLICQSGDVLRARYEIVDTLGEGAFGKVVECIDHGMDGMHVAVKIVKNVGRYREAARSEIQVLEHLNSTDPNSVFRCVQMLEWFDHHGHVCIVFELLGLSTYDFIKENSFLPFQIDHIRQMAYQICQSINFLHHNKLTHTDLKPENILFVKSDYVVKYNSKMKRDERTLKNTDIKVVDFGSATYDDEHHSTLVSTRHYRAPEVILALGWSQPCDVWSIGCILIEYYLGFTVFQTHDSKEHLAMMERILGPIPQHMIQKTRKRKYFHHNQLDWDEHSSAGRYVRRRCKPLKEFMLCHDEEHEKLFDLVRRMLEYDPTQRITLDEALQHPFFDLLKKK
Sequence of Tyrosine-protein kinase receptor TYRO3 (Q06418 whole entry): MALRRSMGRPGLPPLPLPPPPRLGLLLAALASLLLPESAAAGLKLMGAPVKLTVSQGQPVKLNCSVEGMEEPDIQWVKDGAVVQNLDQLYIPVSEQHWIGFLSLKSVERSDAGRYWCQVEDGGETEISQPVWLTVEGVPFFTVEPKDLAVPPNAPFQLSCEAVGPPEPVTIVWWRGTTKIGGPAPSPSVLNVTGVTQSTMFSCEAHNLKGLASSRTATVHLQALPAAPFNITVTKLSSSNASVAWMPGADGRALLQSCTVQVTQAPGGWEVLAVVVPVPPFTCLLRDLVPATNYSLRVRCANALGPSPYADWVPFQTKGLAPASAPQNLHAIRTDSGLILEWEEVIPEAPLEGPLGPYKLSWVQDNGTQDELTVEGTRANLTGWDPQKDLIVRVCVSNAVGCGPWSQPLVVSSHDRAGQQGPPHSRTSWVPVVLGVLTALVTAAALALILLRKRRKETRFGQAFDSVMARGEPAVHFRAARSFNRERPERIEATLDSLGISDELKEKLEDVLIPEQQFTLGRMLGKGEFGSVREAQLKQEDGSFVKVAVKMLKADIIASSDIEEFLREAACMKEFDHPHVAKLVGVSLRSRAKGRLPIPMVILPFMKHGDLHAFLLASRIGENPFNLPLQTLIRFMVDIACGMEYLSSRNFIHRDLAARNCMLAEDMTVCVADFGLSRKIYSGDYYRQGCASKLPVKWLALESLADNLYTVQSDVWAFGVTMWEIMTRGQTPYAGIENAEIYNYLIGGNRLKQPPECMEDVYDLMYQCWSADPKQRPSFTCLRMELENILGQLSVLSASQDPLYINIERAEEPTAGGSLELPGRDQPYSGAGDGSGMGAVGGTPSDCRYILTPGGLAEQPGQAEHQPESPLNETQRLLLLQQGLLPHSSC
Sequence of Cyclin-dependent kinase 8 (P49336 whole entry): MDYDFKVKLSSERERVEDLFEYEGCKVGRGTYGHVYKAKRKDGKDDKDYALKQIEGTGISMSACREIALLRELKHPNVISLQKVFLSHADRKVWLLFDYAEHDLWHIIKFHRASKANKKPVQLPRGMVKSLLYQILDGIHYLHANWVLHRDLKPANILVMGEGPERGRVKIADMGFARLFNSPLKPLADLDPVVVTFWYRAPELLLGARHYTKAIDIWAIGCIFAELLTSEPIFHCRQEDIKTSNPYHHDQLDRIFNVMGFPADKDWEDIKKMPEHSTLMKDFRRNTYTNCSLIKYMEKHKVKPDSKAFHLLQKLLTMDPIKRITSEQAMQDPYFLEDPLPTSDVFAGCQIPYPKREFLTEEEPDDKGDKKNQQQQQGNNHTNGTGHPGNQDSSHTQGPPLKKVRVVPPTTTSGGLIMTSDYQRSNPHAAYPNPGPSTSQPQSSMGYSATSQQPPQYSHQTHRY
Sequence of Dual specificity tyrosine-phosphorylation-regulated kinase 1B (Q9Y463 whole entry): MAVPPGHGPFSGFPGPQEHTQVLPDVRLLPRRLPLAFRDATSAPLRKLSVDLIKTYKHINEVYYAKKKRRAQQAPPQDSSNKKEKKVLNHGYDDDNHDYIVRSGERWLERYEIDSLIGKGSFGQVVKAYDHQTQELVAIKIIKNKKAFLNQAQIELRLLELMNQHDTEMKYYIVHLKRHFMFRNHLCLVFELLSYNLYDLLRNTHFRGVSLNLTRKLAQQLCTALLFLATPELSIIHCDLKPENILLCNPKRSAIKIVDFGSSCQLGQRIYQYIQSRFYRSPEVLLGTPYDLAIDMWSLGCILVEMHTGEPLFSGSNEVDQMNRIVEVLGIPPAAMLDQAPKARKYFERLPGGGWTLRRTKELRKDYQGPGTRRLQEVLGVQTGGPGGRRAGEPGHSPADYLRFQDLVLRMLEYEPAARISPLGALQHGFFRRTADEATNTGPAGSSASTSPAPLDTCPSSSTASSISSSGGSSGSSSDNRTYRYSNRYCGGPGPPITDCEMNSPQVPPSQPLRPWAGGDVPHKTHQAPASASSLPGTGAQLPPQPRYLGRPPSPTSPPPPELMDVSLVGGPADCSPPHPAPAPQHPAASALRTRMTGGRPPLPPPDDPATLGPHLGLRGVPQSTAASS
Sequence of Female germline-specific tumor suppressor gld-1 (Q17339 whole entry): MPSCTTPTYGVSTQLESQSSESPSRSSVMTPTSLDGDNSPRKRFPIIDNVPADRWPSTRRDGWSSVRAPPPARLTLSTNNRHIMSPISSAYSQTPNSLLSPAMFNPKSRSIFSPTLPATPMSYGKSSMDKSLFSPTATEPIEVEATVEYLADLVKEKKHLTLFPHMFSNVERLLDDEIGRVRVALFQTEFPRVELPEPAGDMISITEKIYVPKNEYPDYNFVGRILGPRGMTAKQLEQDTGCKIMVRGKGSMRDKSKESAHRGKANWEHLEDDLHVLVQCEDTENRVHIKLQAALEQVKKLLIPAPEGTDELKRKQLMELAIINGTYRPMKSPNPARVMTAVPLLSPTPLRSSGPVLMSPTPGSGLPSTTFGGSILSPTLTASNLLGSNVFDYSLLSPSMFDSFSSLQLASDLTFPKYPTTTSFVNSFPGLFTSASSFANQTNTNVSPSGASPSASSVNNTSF
Sequence of Protein Rev (P04618 whole entry): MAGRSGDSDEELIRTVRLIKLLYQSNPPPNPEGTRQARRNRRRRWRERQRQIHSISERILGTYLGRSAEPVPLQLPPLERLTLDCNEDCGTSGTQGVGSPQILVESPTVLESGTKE
Sequence of Cyclin-dependent kinase 19 (Q9BWU1 whole entry): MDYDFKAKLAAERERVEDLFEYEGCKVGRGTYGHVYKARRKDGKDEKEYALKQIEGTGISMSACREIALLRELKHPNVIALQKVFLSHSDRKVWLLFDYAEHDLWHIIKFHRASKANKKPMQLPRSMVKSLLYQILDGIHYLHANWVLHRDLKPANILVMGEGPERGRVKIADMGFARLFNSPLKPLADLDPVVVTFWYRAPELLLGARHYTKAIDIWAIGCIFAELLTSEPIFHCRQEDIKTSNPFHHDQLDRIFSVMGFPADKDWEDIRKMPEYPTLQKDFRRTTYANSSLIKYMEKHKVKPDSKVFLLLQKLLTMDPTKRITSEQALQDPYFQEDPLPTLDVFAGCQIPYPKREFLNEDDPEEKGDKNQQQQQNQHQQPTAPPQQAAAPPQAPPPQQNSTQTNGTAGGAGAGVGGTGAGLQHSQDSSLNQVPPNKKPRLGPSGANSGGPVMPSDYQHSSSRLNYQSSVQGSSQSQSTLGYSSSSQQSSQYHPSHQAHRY

Compound: O=C1NC(=S)N(c2ccccc2)C1=O
Ki [5]: 79.4 µM (active)
Ki [6]: 79.4 µM (active)

Compound: CC(=O)Oc1cccc2c1C(=O)c1c(OC(C)=O)cc(C(=O)O)cc1C2=O [DIACEREIN]
EC50 (Caspase-3 [9]): 7.89 µM (active)
EC50 [10]: > 99 µM (inactive)
IC50 (Protein Rev): > 75.4 µM (not active)
EC50 (Caspase-7): 14.8 µM (inactive)
EC50 [11]: > 99 µM (inactive)
IC50 [12]: 7.31 µM (active)

Compound: C[C@@H]1CN([C@@H](C)CO)C(=O)c2cc(NC(=O)Cc3cn(C)c4ccccc34)ccc2O[C@H]1CN(C)S(=O)(=O)c1ccc(F)cc1
AC50 [15]: 2.08 µM (active)

Now from value to compound, other results behind:

IC50 [1]: 2.05 µM (active)
IC50 [2]: 1.31 µM (active)
IC50 (Caspase-3 [3]): 2.88 µM (active)
Compound: CCC(C)(C)c1ccc2c(c1)C(=O)c1ccccc1C2=O
IC50 [4]: 2.38 µM (active)

Ki [7]: 2.51 µM (active)
Ki [8]: 0.794 µM (active)
Compound: O=C(Nc1cccc2[nH]ncc12)NC1CCc2c1cccc2N1CCCC1 (configuration not stated)

Ki [13]: > 100 µM (inactive)
Ki [14]: 0.000251 µM (active)
Compound: Cc1ccc(F)c(NC(=O)Nc2ccc(-c3coc4c(-c5cccnc5)cnc(N)c34)cc2)c1
